{"source": "patent US20230000081A1", "about": "“SYNERGISTIC PESTICIDAL COMPOSITIONS FOR DELIVERY OF PESTICIDAL ACTIVE INGREDIENTS AND METHODS THEREFOR” (0903608 B.C. Ltd., priority 2018, published 2023)", "assay_in_all_cases": "Synergistic Growth Inhibition Assay (MIC, FIC index; 96-well microtiter plate, resazurin dye)", "assay_type_in_all_cases": "cell-based", "key": {"[1]": {"tested_on": "Alternaria solani", "conditions": "7 days incubation; for MIC (A): Compound A alone", "method": "In some embodiments, the synergistic action between the pesticidal active ingredient, and the at least one C4-C10 (or alternatively C11 or C12) saturated or unsaturated aliphatic acid components of the pesticidal compositions according to embodiments of the present disclosure was tested using a Synergistic Growth Inhibition Assay, which is derived from and related to a checkerboard assay as is known in the art for testing of combinations of antimicrobial agents. In the Synergistic Growth Inhibition Assay used in accordance with some embodiments of the present disclosure, multiple dilutions of combinations of pesticidal active ingredient and at least one C4-C10 saturated or unsaturated aliphatic acid agents are tested in individual cells for inhibitory activity against a target pest or pathogenic organism. In one such embodiment, the combinations of pesticidal active ingredient and C4-C10 (or alternatively C11 or C12) saturated or unsaturated aliphatic acid agents may preferably be tested in decreasing concentrations. In a further such embodiment, the combinations of pesticidal active ingredient and C4-C10 (or alternatively C11 or C12) saturated or unsaturated aliphatic acid agents may be tested in increasing concentrations. These multiple combinations of the pesticidal active ingredient and at least one C4-C10 (or alternatively C11 or C12) saturated or unsaturated aliphatic acid agents may be prepared in 96-well microtiter plates. […] Thus, each well of the microtiter plate is a unique combination of the two agents, at which inhibitory efficacy of the combination against the target pest or pathogen can be determined.\nIn one embodiment according to the present disclosure, for each row of microtiter cells in the Synergistic Growth Inhibition Assay, the FIC index is calculated from the lowest concentration of the pesticidal active ingredient and one or more C4-C10 saturated or unsaturated aliphatic acid agents necessary to inhibit growth of a target pest or pathogen. […] The FIC index is calculated for each row as follows: […]"}, "[2]": {"tested_on": "Fusarium oxysporum", "conditions": "for MIC (A): Compound A alone", "method": "(§1) In some embodiments, the synergistic action between the pesticidal active ingredient, and the at least one C4-C10 (or alternatively C11 or C12) saturated or unsaturated aliphatic acid components of the pesticidal compositions according to embodiments of the present disclosure was tested using a Synergistic Growth Inhibition Assay, which is derived from and related to a checkerboard assay as is known in the art for testing of combinations of antimicrobial agents. In the Synergistic Growth Inhibition Assay used in accordance with some embodiments of the present disclosure, multiple dilutions of combinations of pesticidal active ingredient and at least one C4-C10 saturated or unsaturated aliphatic acid agents are tested in individual cells for inhibitory activity against a target pest or pathogenic organism. In one such embodiment, the combinations of pesticidal active ingredient and C4-C10 (or alternatively C11 or C12) saturated or unsaturated aliphatic acid agents may preferably be tested in decreasing concentrations. In a further such embodiment, the combinations of pesticidal active ingredient and C4-C10 (or alternatively C11 or C12) saturated or unsaturated aliphatic acid agents may be tested in increasing concentrations. These multiple combinations of the pesticidal active ingredient and at least one C4-C10 (or alternatively C11 or C12) saturated or unsaturated aliphatic acid agents may be prepared in 96-well microtiter plates. In one such embodiment, the Synergistic Growth Inhibition Assay then comprises rows which each contain progressively decreasing concentrations of the pesticidal active ingredient and one or more C4-C10 (or alternatively C11 or C12) saturated or unsaturated aliphatic acid agents to test for the MIC of the agents in combination at which growth of the target pest or pathogen is inhibited. Thus, each well of the microtiter plate is a unique combination of the two agents, at which inhibitory efficacy of the combination against the target pest or pathogen can be determined.\n(§2) In one embodiment according to the present disclosure, for each row of microtiter cells in the Synergistic Growth Inhibition Assay, the FIC index is calculated from the lowest concentration of the pesticidal active ingredient and one or more C4-C10 saturated or unsaturated aliphatic acid agents necessary to inhibit growth of a target pest or pathogen. The FIC of each component is derived by dividing the concentration of the agent present in that well of the microtiter plate by the minimal inhibitory concentration (MIC) needed of that agent alone to inhibit growth of the target pest or pathogen. The FIC index is then the sum of these values for both agents in that well of the microtiter plate. The FIC index is calculated for each row as follows:\n(§3) FICindex=MICa/MICA+MICb/MICB\n(§4) Fractional inhibitory concentration indices may then used as measure of synergy. […] When the FIC index is equal to 1, the combination is additive.\nThen, serial dilutions of these initial compositions in successive wells in the row of the microtiter plate were used to assay the pesticidal composition under the same conditions to determine the concentration of the composition combining the two agents corresponding to the microtiter well in which growth inhibition of the target pest or organism ceases. […]"}, "[3]": {"tested_on": "Botrytis cinerea", "conditions": "for MIC (A): Compound A alone", "method": "as §1, §2, §3, §4\n(§5) Then, serial dilutions of these initial compositions in successive wells in the row of the microtiter plate were used to assay the pesticidal composition under the same conditions to determine the concentration of the composition combining the two agents corresponding to the microtiter well in which growth inhibition of the target pest or organism ceases.\nSimilarly to as described above, Resazurin was used as an indicator of growth or inhibition of growth of Botrytis cinerea in the exemplary Synergistic Growth Inhibition Assay. In addition to the color change of the resazurin, an optical or visual examination of the microtiter well may also be made to additionally determine the presence of growth or inhibition of growth of the Botrytis cinerea."}, "[4]": {"tested_on": "Sclerotinia sclerotiorum", "conditions": "for MIC (A): Compound A alone", "method": "as §1, §2, §3, §4, §5\nSimilarly to as described above, Resazurin was used as an indicator of growth or inhibition of growth of Sclerotinia sclerotiorum in the exemplary Synergistic Growth Inhibition Assay. […]"}, "[5]": {"conditions": "Compound B alone, 48 hours incubation"}, "[6]": {"conditions": "Compound B (aliphatic acid) alone, Botrytis cinerea, 48 hours incubation"}, "[7]": {"conditions": "Fusarium oxysporum, incubation period of 48 hours"}, "[8]": {"conditions": "Sclerotinia sclerotiorum, 7 days incubation"}, "[9]": {"conditions": "Botrytis cinerea, 48 hours incubation"}}, "note": "Where “and” joins values, the source holds several entries; their conditions need not be identical. Identical values can stand only once."}
{"compound": "CCC(O)C(=O)O", "note": "(stereo not drawn) [2-Hydroxybutyric acid]", "values": [{"measurement": "MIC (B)", "setting": "[1]; Compound B (aliphatic acid) alone", "result": 2500, "unit": "µg/mL"}]}
{"compound": "CC(O)CC(=O)O", "note": "(stereo not drawn) [3-Hydroxybutyric acid, 3-hydroxybutyric acid]", "values": [{"measurement": "MIC (B)", "setting": "[2]; [5]", "result": 10000, "unit": "µg/mL"}, {"measurement": "MIC (B)", "setting": "[3]; [6]", "result": 10000, "unit": "µg/mL"}]}
{"compound": "CCCCCCCC(O)CC(=O)O", "note": "(stereo not drawn) [3-Hydroxydecanoic acid, 3-hydroxydecanoic acid]", "values": [{"measurement": "MIC (B)", "setting": "[3]; [6]", "result": 125, "unit": "µg/mL"}]}
{"compound": "CCCC(O)CC(=O)O", "note": "(stereo not drawn) [3-Hydroxyhexanoic acid, 3-hydroxyhexanoic acid]", "values": [{"measurement": "MIC (B)", "setting": "[3]; [6]", "result": 2500, "unit": "µg/mL"}]}
{"compound": "O=C(O)CCCCCCCO", "note": "[8-Hydroxyoctanoic acid]", "values": [{"measurement": "MIC (B)", "setting": "[3]; [6]", "result": 2500, "unit": "µg/mL"}]}
{"compound": "O=C(O)CCCCCCCCCCCO", "note": "[12-Hydroxydodecanoic acid]", "values": [{"measurement": "MIC (B)", "setting": "[3]; [6]", "result": "100 µg/mL and 50 µg/mL"}]}
{"compound": "CCCCCCCC/C=C\\CCCCCCCC(=O)O", "note": "[(9Z)-octadecenoic acid]", "values": [{"measurement": "MIC (B)", "setting": "[3]; Compound B alone, Botrytis cinerea, incubation period of 48 hours", "result": 5000, "unit": "µg/mL"}, {"measurement": "MIC (B)", "setting": "[4]; Compound B alone, Sclerotinia sclerotiorum, 7 days incubation", "result": 5000, "unit": "µg/mL"}]}
{"compound": "CO/C=C(/C(=O)OC)c1ccccc1Oc1cc(Oc2ccccc2C#N)ncn1", "note": "[Azoxystrobin, azoxystrobin, reference compound]", "values": [{"measurement": "MIC (A)", "setting": "[2]; Fusarium oxysporum, 48 hours incubation", "result": 150, "unit": "µg/mL"}, {"measurement": "MIC (A)", "setting": "[2]; [7]", "result": 150, "unit": "µg/mL"}, {"measurement": "MIC (A)", "setting": "[3]; Botrytis cinerea, incubation period of 2 days", "result": 150, "unit": "µg/mL"}, {"measurement": "MIC (A)", "setting": "[3]; Botrytis cinerea, incubation period of 48 hours", "result": "75 µg/mL and 150 µg/mL"}, {"measurement": "MIC (A)", "setting": "[4]; 7 days incubation", "result": 75, "unit": "µg/mL"}, {"measurement": "MIC (A)", "setting": "[4]; [8]", "result": 150, "unit": "µg/mL"}, {"measurement": "MIC (A)", "setting": "[4]; Sclerotinia sclerotiorum, incubation period of 7 days", "result": 150, "unit": "µg/mL"}]}
{"compound": "N#Cc1c[nH]cc1-c1cccc2c1OC(F)(F)O2", "note": "[Fludioxonil, fludioxonil]", "values": [{"measurement": "MIC (A)", "setting": "[2]; 24 hour incubation", "result": 0.24063, "unit": "µg/mL"}]}
{"compound": "CCCCCC(=O)O", "note": "[Hexanoic acid]", "values": [{"measurement": "MIC (B)", "setting": "[3]; [5]", "result": 156.2, "unit": "µg/mL"}]}
{"compound": "Cc1cc(C(F)(F)F)nn1CC(=O)N1CCC(c2nc(C3=NOC(c4c(F)cccc4F)C3)cs2)CC1", "note": "(stereo not drawn) [Oxathiapiprolin]", "values": [{"measurement": "MIC (A)", "setting": "[3]; [9]", "result": 500, "unit": "µg/mL"}]}
{"compound": "CO/C=C(/C(=O)OC)c1ccccc1COc1cccc(C(F)(F)F)n1", "note": "[Picoxystrobin]", "values": [{"measurement": "MIC (A)", "setting": "[1]", "result": 500, "unit": "µg/mL"}, {"measurement": "MIC (A)", "setting": "[3]; [9]", "result": 250, "unit": "µg/mL"}, {"measurement": "MIC (A)", "setting": "[4]; [8]", "result": 500, "unit": "µg/mL"}]}
{"compound": "CC(C)(C)C(O)(CCc1ccc(Cl)cc1)Cn1cncn1", "note": "(stereo not drawn) [Tebuconazole]", "values": [{"measurement": "MIC (A)", "setting": "[2]; [7]", "result": 225, "unit": "µg/mL"}]}
{"compound": "Mancozeb", "values": [{"measurement": "MIC (A)", "setting": "[1]", "result": 500, "unit": "µg/mL"}]}
